These results are taken from patent US11524938B2, “Aromatic sulfonamide derivatives” (Bayer Pharma Aktiengesellschaft, priority 2016, dated 2022).

The experiment addresses T1, human P2X4 (Homo sapiens, UniProt Q99571).
T1 sequence (Q99571 1-388): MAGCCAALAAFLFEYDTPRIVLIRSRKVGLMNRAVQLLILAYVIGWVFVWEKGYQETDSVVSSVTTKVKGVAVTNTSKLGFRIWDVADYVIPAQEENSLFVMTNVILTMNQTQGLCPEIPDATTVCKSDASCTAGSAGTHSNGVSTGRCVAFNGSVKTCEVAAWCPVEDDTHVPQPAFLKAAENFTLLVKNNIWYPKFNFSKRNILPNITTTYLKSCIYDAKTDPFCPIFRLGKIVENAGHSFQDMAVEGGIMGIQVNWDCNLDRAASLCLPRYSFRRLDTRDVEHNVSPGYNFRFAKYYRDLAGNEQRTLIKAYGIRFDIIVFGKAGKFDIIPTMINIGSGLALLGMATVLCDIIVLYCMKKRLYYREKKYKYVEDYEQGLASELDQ
As to the kind of experiment: Human P2X4 HEK Cell FLIPR Assay. It is filed as cell-based. The following applies: agonist Bz-ATP at EC80; for Emax: HEK293, HEK293 cells, percentage of maximal inhibition, read-out: Human P2X4 HEK Cells (FLIPR Assay) avg Efficacy [%]; for IC50: HEK293 cells, individual values listed where some fall outside detection range. Put shortly:
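HEK293 cells stably expressing human P2X4, Fluo8-AM loaded 30 min at 37° C, then compound 30 min at room temperature (0.5% DMSO, pH 7.4 buffer with 1.8 mM CaCl2). Bz-ATP at its daily-determined EC80 added; calcium fluorescence read over 120 sec; IC50 from peak RFU normalized to agonist control, triplicates.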

A value given as a limit tells only on which side of the number the result lay.

As a reminder, the IC50 is the concentration that gives 50% inhibition. A lower IC50 goes with greater potency. As to `NS(=O)(=O)c1cc(NC(=O)Cc2ccccc2Cl)ccc1-c1cnn(CCOC(F)(F)F)c1` [Example 279, 2-(2-Chlorophenyl)-N-(3-sulfamoyl-4-{1-[2-(trifluoromethoxy)ethyl]-1H-pyrazol-4-yl}phenyl)acetamide], the Emax turned out to be 96% and the IC50 stood at 0.061 µM.
As for `NS(=O)(=O)c1cc(NC(=O)Cc2ccccc2Cl)ccc1-c1cnn(C2CCC2)c1` [Example 280, 2-(2-Chlorophenyl)-N-[4-(1-cyclobutyl-1H-pyrazol-4-yl)-3-sulfamoylphenyl]acetamide], the Emax amounted to 101% and the IC50 was 0.06 µM.
`NS(=O)(=O)c1cc(NC(=O)Cc2ccccc2Cl)ccc1-c1cnn(CCN2CCCC2)c1` [Example 281, 2-(2-Chlorophenyl)-N-(4-{1-[2-(pyrrolidin-1-yl)ethyl]-1H-pyrazol-4-yl}-3-sulfamoyl-phenyl)acetamide]: the Emax came out at 76% and the IC50 was 0.481 µM.
Regarding `N#Cc1cncc(-c2ccc(NC(=O)Cc3ccccc3Cl)cc2S(N)(=O)=O)c1` [Example 282, 2-(2-Chlorophenyl)-N-[4-(5-cyanopyridin-3-yl)-3-sulfamoylphenyl]acetamide], the Emax was found to be 80% and the 50% inhibitory concentration (IC50) turned out to be 0.056 µM.
On to `NS(=O)(=O)c1cc(NC(=O)Cc2ccccc2Cl)ccc1-c1cnn(CC2CCO2)c1` (stereo not shown) [Example 283, 2-(2-Chlorophenyl)-N-(4-{1-[oxetan-2-ylmethyl]-1H-pyrazol-4-yl}-3-sulfamoylphenyl)-acetamide], for which the Emax came to 94% and the IC50 was 0.06 µM.
With `NS(=O)(=O)c1cc(NC(=O)Cc2ccccc2Cl)ccc1-c1cnc(OCC(F)(F)F)nc1` [Example 284, 2-(2-Chlorophenyl)-N-{3-sulfamoyl-4-[2-(2,2,2-trifluoroethoxy)pyrimidin-5-yl]phenyl}-acetamide], the Emax is 94% and the IC50 stood at 0.054 µM.
Consider `COc1ncc(-c2ccc(NC(=O)Cc3ccccc3Cl)cc2S(N)(=O)=O)cn1` [Example 285, 2-(2-Chlorophenyl)-N-[4-(2-methoxypyrimidin-5-yl)-3-sulfamoylphenyl]acetamide], for which the Emax was found to be 97% and the IC50 amounted to 0.246 µM.
In the case of `CC(C)OCCn1cc(-c2ccc(NC(=O)Cc3ccccc3Cl)cc2S(N)(=O)=O)cn1` [Example 286, 2-(2-Chlorophenyl)-N-(4-{1-[2-(propan-2-yloxy)ethyl]-1H-pyrazol-4-yl}-3-sulfamoylphenyl)acetamide], the Emax amounted to 87% and the IC50 was determined as 0.006 µM.
Consider `CC(C)(O)CCn1cc(-c2ccc(NC(=O)Cc3ccccc3Cl)cc2S(N)(=O)=O)cn1` [Example 287, 2-(2-Chlorophenyl)-N-{4-[1-(3-hydroxy-3-methylbutyl)-1H-pyrazol-4-yl]-3-sulfamoyl-phenyl}acetamide], for which the Emax is 78% and the IC50 came out at 0.031 µM.
On the same counts, the results for `Cn1nc(-c2ccc(NC(=O)Cc3ccccc3Cl)cc2S(N)(=O)=O)cc1C(C)(C)O` [Example 288, 2-(2-Chlorophenyl)-N-{4-[5-(2-hydroxypropan-2-yl)-1-methyl-1H-pyrazol-3-yl]-3-sulfamoylphenyl}acetamide] are 68% and 0.275 µM.
As to `NS(=O)(=O)c1cc(NC(=O)Cc2ccccc2Cl)ccc1-c1cncc(OC(F)F)c1` [Example 289, 2-(2-Chlorophenyl)-N-{4-[5-(difluoromethoxy)pyridin-3-yl]-3-sulfamoylphenyl}acetamide], the Emax was 89% and the IC50 was found to be 0.006 µM.
As to `COc1cnc(Cl)c(-c2ccc(NC(=O)Cc3ccccc3Cl)cc2S(N)(=O)=O)c1` [Example 290, N-[4-(2-Chloro-5-methoxypyridin-3-yl)-3-sulfamoylphenyl]-2-(2-chlorophenyl)acetamide], the Emax was found to be 81% and the 50% inhibitory concentration (IC50) was 0.036 µM.
Turning to `NS(=O)(=O)c1cc(NC(=O)Cc2ccccc2Cl)ccc1-c1cnn(CCO)c1` [Example 291, 2-(2-Chlorophenyl)-N-{4-[1-(2-hydroxyethyl)-1H-pyrazol-4-yl]-3-sulfamoylphenyl}acetamide], the Emax worked out at 95% and the IC50 stood at 0.1 µM.
For the molecule `CC(C)(C)c1cc(-c2ccc(NC(=O)Cc3ccccc3Cl)cc2S(N)(=O)=O)n[nH]1` [Example 292, N-[4-(5-tert-Butyl-1H-pyrazol-3-yl)-3-sulfamoylphenyl]-2-(2-chlorophenyl)acetamide], the Emax came to 87% and the IC50 was found to be 0.058 µM.
For `NS(=O)(=O)c1cc(NC(=O)Cc2ccccc2Cl)ccc1-c1cnn(Cc2ccccc2)c1` [Example 293, N-[4-(1-Benzyl-1H-pyrazol-4-yl)-3-sulfamoylphenyl]-2-(2-chlorophenyl)acetamide], the Emax is 75% and the IC50 is 0.076 µM.
For `Cc1cc(-c2ccc(NC(=O)Cc3ccccc3Cl)cc2S(N)(=O)=O)cnn1` [Example 294, 2-(2-Chlorophenyl)-N-[4-(6-methylpyridazin-4-yl)-3-sulfamoylphenyl]acetamide], in that order: 75% and 0.174 µM.
On the same counts, the results for `NS(=O)(=O)c1cc(NC(=O)Cc2ccccc2Cl)ccc1-c1cccc(C(F)(F)F)n1` [Example 295, 2-(2-Chlorophenyl)-N-{3-sulfamoyl-4-[6-(trifluoromethyl)pyridin-2-yl]phenyl}acetamide] are 9% and > 25 µM.
Regarding `NS(=O)(=O)c1cc(NC(=O)Cc2ccccc2F)ccc1-c1cnn(C(F)F)c1` [Example 296, N-{4-[1-(Difluoromethyl)-1H-pyrazol-4-yl]-3-sulfamoylphenyl}-2-(2-fluorophenyl)acetamide], the Emax is 87% and the IC50 came out at 0.136 µM.
Take `NS(=O)(=O)c1cc(NC(=O)Cc2ccccc2Cl)cnc1-c1cnn(C(F)F)c1` [Example 297, 2-(2-Chlorophenyl)-N-{6-[1-(difluoromethyl)-1H-pyrazol-4-yl]-5-sulfamoylpyridin-3-yl}acetamide]: the Emax was determined as 87% and the IC50 is 0.032 µM.
Consider `Cc1cc(-c2ccc(NC(=O)Cc3ccccc3Cl)cc2S(N)(=O)=O)cnc1Cl` [Example 298, N-[4-(6-Chloro-5-methylpyridin-3-yl)-3-sulfamoylphenyl]-2-(2-chlorophenyl)acetamide], for which the Emax was determined as 104% and the IC50 was determined as 0.108 µM.
As to `NS(=O)(=O)c1cc(NC(=O)Cc2ccccc2Cl)ccc1-c1cnc(NC2CC2)nc1` [Example 299, 2-(2-Chlorophenyl)-N-{4-[2-(cyclopropylamino)pyrimidin-5-yl]-3-sulfamoylphenyl}acetamide], the Emax came out at 88% and the IC50 came out at 0.203 µM.
For `NS(=O)(=O)c1cc(NC(=O)Cc2ccccc2Cl)ccc1-c1cnn(C2CCOC2)c1` (stereo not shown) [Example 300, 2-(2-Chlorophenyl)-N-{3-sulfamoyl-4-[1-(tetrahydrofuran-3-yl)-1H-pyrazol-4-yl]phenyl}acetamide], the Emax worked out at 100% and the IC50 turned out to be 0.027 µM.
Regarding `CNc1ncc(-c2ccc(NC(=O)Cc3ccccc3Cl)cc2S(N)(=O)=O)cn1` [Example 301, 2-(2-Chlorophenyl)-N-{4-[2-(methylamino)pyrimidin-5-yl]-3-sulfamoylphenyl}acetamide], the Emax was determined as 74% and the IC50 was found to be 0.01 µM.
As to `Cn1cc(-c2ncc(NC(=O)Cc3ccccc3Cl)cc2S(N)(=O)=O)cn1` [Example 302, 2-(2-Chlorophenyl)-N-[6-(1-methyl-1H-pyrazol-4-yl)-5-sulfamoylpyridin-3-yl]acetamide], the Emax came out at 97% and the IC50 is 0.056 µM.
As for `NS(=O)(=O)c1cc(NC(=O)Cc2ccccc2Cl)ccc1-c1cnn(CC(F)F)c1` [Example 303, 2-(2-Chlorophenyl)-N-{4-[1-(2,2-difluoroethyl)-1H-pyrazol-4-yl]-3-sulfamoylphenyl}acetamide], the Emax turned out to be 91% and the IC50 amounted to 0.097 µM.
On to `NS(=O)(=O)c1cc(NC(=O)Cc2ccccc2C(F)(F)F)ccc1-c1cncc(C(F)(F)F)c1` [Example 304, N-{3-Sulfamoyl-4-[5-(trifluoromethyl)pyridin-3-yl]phenyl}-2-[2-(trifluoromethyl)phenyl]acetamide], for which the Emax came out at 65% and the IC50 was found to be 0.073 µM.
For `NS(=O)(=O)c1cc(NC(=O)Cc2ccccc2Cl)cnc1-c1cncc(C(F)(F)F)c1` [Example 305, 2-(2-Chlorophenyl)-N-[3-sulfamoyl-5′-(trifluoromethyl)-2,3′-bipyridin-5-yl]acetamide], in that order: 49% and 0.021 µM.
For `NS(=O)(=O)c1cc(NC(=O)Cc2ccccc2Cl)ccc1-c1cnc(C(F)(F)F)nc1` [Example 306, 2-(2-Chlorophenyl)-N-{3-sulfamoyl-4-[2-(trifluoromethyl)pyrimidin-5-yl]phenyl}acetamide], the Emax is 80% and the 50% inhibitory concentration (IC50) was 0.278 µM.
Turning to `NS(=O)(=O)c1cc(NC(=O)Cc2ccccc2Cl)ccc1-c1cncc(OC(F)(F)F)c1` [Example 307, 2-(2-Chlorophenyl)-N-{3-sulfamoyl-4-[5-(trifluoromethoxy)pyridin-3-yl]phenyl}acetamide], the Emax turned out to be 62% and the IC50 came out at 0.115 µM.
